We go through 18 compounds from ChEMBL document CHEMBL1268840, “Design, synthesis and structure-activity relationship of novel quinoxalin-2-carboxamides as 5-HT3 receptor antagonists for the management of depression” (Bioorg Med Chem Lett, 2010).

Data set [1] deals with Mus musculus. The data set is described as follows: Antidepressant-like activity in mouse assessed as immobility time at 1 mg/kg, ip by forced swimming test. The class given is functional. As to conditions: route intraperitoneal.
Data set [2] relates to Mus musculus. The data set is described as follows: Toxicity in mouse assessed as induction of spontaneous locomotor activity at 2 mg/kg, ip after 10 mins by actophotometry. The following applies: in vivo. Format: organism-based. Also noted: dose 2 mg/kg, route intraperitoneal.
The test system of data set [3] is Mus musculus. The data set is described as follows: Toxicity in mouse assessed as induction of spontaneous locomotor activity at 1 mg/kg, ip after 10 mins by actophotometry. The class given is organism-based. Details: dose 1 mg/kg, route intraperitoneal. As to conditions: in vivo.
The test system of data set [4] is Mus musculus. Put plainly: Antidepressant-like activity in mouse assessed as immobility time at 0.5 mg/kg, ip by forced swimming test. Format: functional. The following applies: route intraperitoneal.
The target of data set [5] is T1, 5-hydroxytryptamine receptor 3A (Cavia porcellus, UniProt O70212).
T1 sequence (O70212 whole entry): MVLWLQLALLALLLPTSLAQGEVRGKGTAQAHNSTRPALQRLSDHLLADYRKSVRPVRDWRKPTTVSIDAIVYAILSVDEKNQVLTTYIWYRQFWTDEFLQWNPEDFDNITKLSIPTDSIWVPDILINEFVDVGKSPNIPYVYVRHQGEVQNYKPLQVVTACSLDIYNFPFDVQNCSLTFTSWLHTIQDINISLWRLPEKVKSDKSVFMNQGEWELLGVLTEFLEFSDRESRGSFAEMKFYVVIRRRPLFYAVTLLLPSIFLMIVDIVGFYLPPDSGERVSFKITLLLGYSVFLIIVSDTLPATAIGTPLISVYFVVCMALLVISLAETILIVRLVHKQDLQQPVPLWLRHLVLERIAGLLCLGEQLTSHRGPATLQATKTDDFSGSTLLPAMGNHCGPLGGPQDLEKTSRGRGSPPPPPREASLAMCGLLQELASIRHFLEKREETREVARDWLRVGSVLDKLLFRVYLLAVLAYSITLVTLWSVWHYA
The data set is described as follows: Antagonist activity at 5HT3 receptor in guinea pig ileum longitudinal muscle myenteric plexus assessed as inhibition of 2-methyl-5-HT-induced contraction. The class given is functional, tissue-based. As to conditions: read-out: pA2 (converted).

Data set [6] concerns Mus musculus. Put plainly: Toxicity in mouse assessed as induction of spontaneous locomotor activity at 0.5 mg/kg, ip after 10 mins by actophotometry. The class given is organism-based. Also noted: dose 0.5 mg/kg, route intraperitoneal. The following applies: in vivo.
In data set [7] the test system is Mus musculus. Put plainly: Antidepressant-like activity in mouse assessed as immobility time at 2 mg/kg, ip by forced swimming test. The class given is functional. As to conditions: route intraperitoneal.

As to `Cc1ccc(NC(=O)c2cnc3ccccc3n2)cc1`, the Time is listed as 105 s in data set [1], 140 s in data set [4] and 97.23 s in data set [7]. For the same compound, the Activity result in data set [2], in data set [3] and in data set [6] was “Non-toxic” each time. In addition, the Kb in data set [5] is 6310 nM.

In the case of `O=C(NCc1ccccc1)c1cnc2ccccc2n1`, the Time in data set [1] turned out to be 133 s. Further, the Activity result in data set [2], in data set [3] and in data set [6] was “Non-toxic” each time. For the same compound, the Kb in data set [5] was 2000 nM.

With `O=C(NNc1ccccc1)c1cnc2ccccc2n1`, the Time in data set [1] worked out at 95.4 s; in data set [4], 126 s; in data set [7], 121 s. In addition, the Activity result in data set [2], in data set [3] and in data set [6] was “Non-toxic” each time. For the same compound, the Kb in data set [5] is 1580 nM.

With `O=C(Nc1cccc(Cl)c1)c1cnc2ccccc2n1`, the Time in data set [1] is 151.2 s. Also, the Activity entry in data set [2], in data set [3] and in data set [6] was “Non-toxic” in each case. Further, the Kb in data set [5] is 1580 nM.

For `CCCNC(=O)c1cnc2ccccc2n1`, the Time in data set [1] stood at 92.33 s; in data set [4], 148 s; in data set [7] it was 125 s. Further, the Activity result in data set [2], in data set [3] and in data set [6] was “Non-toxic” throughout. Also, the Kb in data set [5] is 200 nM.

Turning to `CCCCNC(=O)c1cnc2ccccc2n1`, the values for the Time in data set [1], in data set [4] and in data set [7] were 97.5 s, 121 s and 103 s, respectively. In addition, the Activity result in data set [2], in data set [3] and in data set [6] was “Non-toxic” in each case. The Kb in data set [5] was 50.1 nM.

For `O=C(c1cnc2ccccc2n1)N1CCCC1`, in data set [1], the Time came to 139 s. The Activity entry in data set [2], in data set [3] and in data set [6] was “Non-toxic” in each case. Besides, the Kb in data set [5] was 398 nM.

On to `O=C(NC1CCCC1)c1cnc2ccccc2n1`, for which the Time in data set [1] is reported as 94.25 s; in data set [4], 125 s; in data set [7] it was 120 s. Besides, the Activity entry in data set [2], in data set [3] and in data set [6] was “Non-toxic” throughout. For the same compound, in data set [5], the Kb is 316 nM.

With `O=C(NC1CCCCC1)c1cnc2ccccc2n1`, the Time in data set [1] amounted to 92.85 s; in data set [4] it was 119 s; in data set [7], 99 s. Also, the Activity entry in data set [2], in data set [3] and in data set [6] was “Non-toxic” in each case. Also, the Kb in data set [5] was 1000 nM.

Consider `O=C(Nc1ccccc1)c1cnc2ccccc2n1`, for which, in data set [1], the Time was determined as 141 s. Further, the Activity entry in data set [2], in data set [3] and in data set [6] was “Non-toxic” each time. Moreover, in data set [5], the Kb is 158 nM.

In the case of `COc1ccc(NC(=O)c2cnc3ccccc3n2)cc1`, the Time in data set [1] was determined as 143.5 s. Also, the Activity result in data set [2], in data set [3] and in data set [6] was “Non-toxic” in each case. Also, the Kb in data set [5] is 10000 nM.

For the compound `CC(=O)c1cccc(NC(=O)c2cnc3ccccc3n2)c1`, the Time in data set [1] turned out to be 132.4 s. For the same compound, the Activity entry in data set [2], in data set [3] and in data set [6] was “Non-toxic” in each case. For the same compound, the Kb in data set [5] was 794 nM.

Turning to `O=C(Nc1ccc([N+](=O)[O-])cc1)c1cnc2ccccc2n1`, the Time in data set [1] stood at 106.32 s; in data set [4], 142 s; in data set [7], 108 s. Further, the Activity entry in data set [2], in data set [3] and in data set [6] was “Non-toxic” each time. Moreover, in data set [5], the Kb was 10000 nM.

For `Cc1c(Cl)cccc1NC(=O)c1cnc2ccccc2n1`, the Time in data set [1] worked out at 95.42 s; in data set [4], 120 s; in data set [7], 147 s. The Activity entry in data set [2], in data set [3] and in data set [6] was “Non-toxic” each time. In data set [5], the Kb is 25.1 nM.

With `O=C(Nc1nc2ccccc2s1)c1cnc2ccccc2n1`, in data set [1], the Time was found to be 115.1 s. For the same compound, the Activity entry in data set [2], in data set [3] and in data set [6] was “Non-toxic” throughout. In addition, in data set [5], the Kb is 31600 nM.

Regarding `O=C(Nc1ccc(NC(=O)c2cnc3ccccc3n2)cc1)c1ccccc1`, in data set [1], the Time worked out at 125 s. Further, the Activity entry in data set [2], in data set [3] and in data set [6] was “Non-toxic” throughout. Further, the Kb in data set [5] was 12600 nM.

With `O=C(Nc1ccccc1NC(=O)c1cnc2ccccc2n1)c1ccccc1`, the Time in data set [1] was 121 s. Besides, the Activity entry in data set [2], in data set [3] and in data set [6] was “Non-toxic” each time. Also, the Kb in data set [5] is 100000 nM.

For the compound `Cc1nccn1CC1CCc2c(c3ccccc3n2C)C1=O` (stereo not drawn) [ONDANSETRON], the Time in data set [1] turned out to be 100.4 s; in data set [4] it was 130.2 s; in data set [7], 95.1 s. Moreover, the Activity entry in data set [2], in data set [3] and in data set [6] was “Non-toxic” throughout. Also, in data set [5], the Kb is 126 nM.
